Assay results as given in patent US7723364B2, “N-[2-(2-pyridinyl) ethyl]benzamide compounds and their use as fungicides” (Bayer Cropscience SA, priority 2003, dated 2010).

Experiments:
Pyrenophora teres = experiment: In vivo test on Pyrenophora teres (barley net blotch); conditions: 288 h, dose of 330 ppm, barley plants sprayed 24 hours before contamination, grading 12 days after contamination vs control plants, read-out: good (at least 50%) or total protection
Description: In Vivo Test on Pyrenophora teres (Barley Net Blotch)
(§1) The active ingredient tested is prepared by potter homogenisation in a concentrated suspension type formulation at 100 g/l. This suspension is then diluted with water to obtain the desired active material concentration.
(§2) Barley plants (Express variety) in starter cups, sown on a 50/50 peat soil-pozzolana substrate and grown at 12° C., are treated at the 1-leaf stage (10 cm tall) by spraying with the aqueous suspension described above. Plants, used as controls, are treated with an aqueous solution not containing the active material.
After 24 hours, the plants are contaminated by spraying them with an aqueous suspension of Pyrenophora teres spores (12,000 spores per ml). The spores are collected from a 12-day-old culture. The contaminated barley plants are incubated for 24 hours at about 20° C. and at 100% relative humidity, and then for 12 days at 80% relative humidity.

Alternaria brassicae = experiment: In vivo test on Alternaria brassicae (leaf spot of crucifers) on radish plants; conditions: for pest or weed control at 330 ppm: Alternaria brassicae, dose of 330 ppm, radish plants sprayed 24 hours before contamination, grading 6 to 7 days after contamination vs control plants, read-out: good (at least 50%) or total protection; for effectiveness on Alternaria brassicae: comparison compounds of WO 01/11965, 330 ppm
Description: In Vivo Test on Alternaria brassicae (Leaf Spot of Crucifers)
as §1
Radish plants (Pernot variety) in starter cups, sown on a 50/50 peat soil-pozzolana substrate and grown at 18-20° C., are treated at the cotyledon stage by spraying with the aqueous suspension described above.
(§3) Plants, used as controls, are treated with an aqueous solution not containing the active material.
After 24 hours, the plants are contaminated by spraying them with an aqueous suspension of Alternaria brassicae spores (40,000 spores per cm^3). The spores are collected from a 12 to 13 days-old culture.
The contaminated radish plants are incubated for 6-7 days at about 18° C., under a humid atmosphere.
Grading is carried out 6 to 7 days after the contamination, in comparison with the control plants.

[1] = system: Erysiphe graminis f. sp. tritici; experiment: In vivo test on Erysiphe graminis f. sp. tritici (powdery mildew of wheat); conditions: Blumeria graminis; dose of 330 ppm; wheat plants sprayed 24 hours before contamination; grading 7 to 14 days after contamination vs control plants; read-out: good (at least 50%) or total protection
Description: In Vivo Test on Erysiphe graminis f. sp. tritici (Powdery Mildew of Wheat)
as §1
Wheat plants (Audace variety) in starter cups, sown on 50/50 peat soil-pozzolana substrate and grown at 12° C., are treated at the 1-leaf stage (10 cm tall) by spraying with the aqueous suspension described above.
as §3
After 24 hours, the plants are contaminated by dusting them with Erysiphe graminis f. sp. tritici spores, the dusting being carried out using diseased plants.
Grading is carried out 7 to 14 days after the contamination, in comparison with the control plants.
Under these conditions, good (at least 50%) or total protection is observed at a dose of 330 ppm with the following compounds: 1, 3, 4, 5, 6, 8, 9, 10, 11, 12, 13, 18, 38, 50, 43 and 45.

Botrytis cinerea = experiment: In vivo test on Botrytis cinerea (cucumber grey mould); conditions: for pest or weed control at 330 ppm: Botrytis cinerea, dose of 330 ppm, cucumber plants sprayed 24 hours before contamination, grading 5/7 days after contamination vs control plants, read-out: good (at least 50%) or total protection; for effectiveness on Botrytis cinerea: comparison compounds of WO 01/11965, 330 ppm
Description: In Vivo Test on Botrytis cinerea (Cucumber Grey Mould)
as §1
as §2, with “Cucumber” for “Barley”, “(Marketer” for “(Express”, “18-20°” for “12°”, “cotyledon Z11” for “1-leaf”, “stage” for “stage (10 cm tall)”
After 24 hours, the plants are contaminated by depositing drops of an aqueous suspension of Botrytis cinerea spores (150,000 spores per ml) on upper surface of the leaves. The spores are collected from a 15-day-old culture and are suspended in a nutrient solution composed of:
The contaminated cucumber plants are settled for 5/7 days in a climatic room at 15-11° C. (day/night) and at 80% relative humidity.
Grading is carried out 5/7 days after the contamination, in comparison with the control plants. Under these conditions, good (at least 50%) or total protection is observed at a dose of 330 ppm with the following compounds: 1, 2, 3, 4, 5, 6, 9, 10, 13, 18, 21, 22, 23, 25, 26, 27, 28, 29, 32, 34, 35, 38, 40, 43, 44, 45, 46, 47, 50, 51, 52, 53, 57 and 62.

| SMILES | pest or weed control at 330 ppm (Pyrenophora teres) [%] | pest or weed control at 330 ppm (Alternaria brassicae) [%] | pest or weed control at 330 ppm (Botrytis cinerea) [%] | other results |
| --- | --- | --- | --- | --- |
| Cc1c(F)c(F)nc(CCNC(=O)c2ccccc2C(F)(F)F)c1F [Compound 42] | ≥ 50 | – | – | – |
| O=C(NCCc1ncc(Cl)cc1F)c1ccccc1C(F)(F)F [Compound 10] | ≥ 50 | ≥ 50 | ≥ 50 | pest or weed control at 330 ppm [1]: ≥ 50% |
| O=C(NCCc1ncc(Br)cc1Cl)c1ccccc1Br [Compound 52] | ≥ 50 | ≥ 50 | ≥ 50 | – |
| CC(CNC(=O)c1ccccc1I)c1ncc(Cl)cc1Cl (centres unmarked) [Compound 61] | ≥ 50 | ≥ 50 | – | – |
| Cc1ccc(Cl)c(CCNC(=O)c2ccccc2C(F)(F)F)n1 [Compound 56] | ≥ 50 | ≥ 50 | – | – |
| O=C(NCCc1nc(F)c(Cl)cc1Cl)c1ccccc1Br [Compound 58] | ≥ 50 | ≥ 50 | – | – |
| O=C(NCCc1ccc(Cl)cn1)c1ccccc1C(F)(F)F [Compound 20] | – | ≥ 50 | – | – |
| CCNC(=O)C(Cc1ncc(C(F)(F)F)cc1Cl)NC(=O)c1ccc(Cl)cc1 (centres unmarked) [compound 306, N-{1-ethylcarbamoyl-2-[3-chloro-5-(trifluoromethyl)-2-pyridinyl]ethyl}-4-chlorobenzamide, reference compound] | – | – | – | effectiveness on Botrytis cinerea (Botrytis cinerea): zero effectiveness |
| CC(CNC(=O)c1ccccc1I)c1ccc(Cl)cn1 (centres unmarked) [Compound 65] | ≥ 50 | – | – | – |
| O=C(NCCc1ncccc1Cl)c1ccccc1C(F)(F)F [Compound 6, N-[2-(3-chloro-2-pyridinyl)ethyl]-2-(trifluoromethyl)benzamide] | – | ≥ 50 | ≥ 50 | pest or weed control at 330 ppm [1]: ≥ 50% |
| O=C(NCCc1nc(F)c(Cl)cc1F)c1ccccc1C(F)(F)F [Compound 62] | ≥ 50 | ≥ 50 | ≥ 50 | – |
| O=C(NCCc1nc(Cl)ccc1Cl)c1ccccc1I [Compound 36] | ≥ 50 | ≥ 50 | – | – |
| CCNC(=O)C(Cc1ncc(C(F)(F)F)cc1Cl)NC(=O)c1cccc([N+](=O)[O-])c1 (centres unmarked) [compound 307, N-{1-ethylcarbamoyl-2-[3-chloro-5-(trifluoromethyl)-2-pyridinyl]ethyl}-3-nitrobenzamide, reference compound] | – | – | – | effectiveness on Alternaria brassicae (Alternaria brassicae): poor effectiveness; effectiveness on Botrytis cinerea (Botrytis cinerea): zero effectiveness |
| CNC(=O)C(Cc1ncc(C(F)(F)F)cc1Cl)NC(=O)c1ccccc1 (centres unmarked) [compound 314, N-{1-methylcarbamoyl-2-[3-chloro-5-(trifluoromethyl)-2-pyridinyl]ethyl}-benzamide, reference compound] | – | – | – | effectiveness on Botrytis cinerea (Botrytis cinerea): zero effectiveness |
| CC(CNC(=O)c1ccccc1C(F)(F)F)c1ncc(Cl)cc1Cl (centres unmarked) [Compound 60] | ≥ 50 | ≥ 50 | – | – |
| O=C(NCCc1nc(Cl)c(Cl)cc1Cl)c1ccccc1C(F)(F)F [Compound 23] | – | – | ≥ 50 | – |
| O=C(NCCc1nc(Cl)ccc1Cl)c1ccccc1C(F)F [Compound 41] | ≥ 50 | ≥ 50 | – | – |
| O=C(NCCc1nc(F)c(Cl)cc1Cl)c1ccccc1C(F)(F)F [Compound 57] | ≥ 50 | ≥ 50 | ≥ 50 | – |
| O=C(NCCc1ncc(Cl)cc1Cl)c1ccccc1Cl [Compound 2] | ≥ 50 | ≥ 50 | ≥ 50 | – |
| O=C(NCCc1nc(F)c(F)cc1F)c1ccccc1Cl [Compound 48] | ≥ 50 | – | – | – |

| SMILES | pest or weed control at 330 ppm (Pyrenophora teres) [%] | pest or weed control at 330 ppm (Alternaria brassicae) [%] | pest or weed control at 330 ppm (Botrytis cinerea) [%] | other results |
| --- | --- | --- | --- | --- |
| CCNC(=O)C(Cc1ncc(C(F)(F)F)cc1Cl)NC(=O)c1ccccc1 (centres unmarked) [compound 304, N-{1-ethylcarbamoyl-2-[3-chloro-5-(trifluoromethyl)-2-pyridinyl]-ethyl}-benzamide, reference compound] | – | – | – | effectiveness on Botrytis cinerea (Botrytis cinerea): zero effectiveness |
| Cc1ccccc1C(=O)NCCc1nc(F)c(F)c(C)c1F [Compound 49] | ≥ 50 | ≥ 50 | – | – |
| O=C(NCCc1nc(F)c(Cl)cc1F)c1ccccc1I [Compound 63] | ≥ 50 | ≥ 50 | – | – |
| CC(CNC(=O)c1cc(F)ccc1Cl)c1ccc(Cl)cn1 (centres unmarked) [Compound 7] | – | ≥ 50 | – | – |
| Cc1ccc(CCNC(=O)c2ccccc2I)nc1 [Compound 14, N-[2-(5-methyl-2-pyridinyl)ethyl]-2-(iodo)benzamide] | – | ≥ 50 | – | – |
| O=C(NCCc1nc(Cl)c(Cl)cc1Cl)c1ccccc1I [Compound 22] | – | – | ≥ 50 | – |
| CNC(=O)C(Cc1ncc(C(F)(F)F)cc1Cl)NC(=O)c1ccc(-c2ccccc2)cc1 (centres unmarked) [compound 316, N-{1-methylcarbamoyl-2-[3-chloro-5-(trifluoromethyl)-2-pyridinyl]-ethyl}-4-phenylbenzamide, reference compound] | – | – | – | effectiveness on Alternaria brassicae (Alternaria brassicae): poor effectiveness; effectiveness on Botrytis cinerea (Botrytis cinerea): zero effectiveness |
| O=C(NCCc1ncc(Cl)cc1F)c1ccccc1C(F)F [Compound 29] | – | – | ≥ 50 | – |
| O=C(NCCc1ccc(Cl)cn1)c1ccccc1I [Compound 24] | – | ≥ 50 | – | – |
| O=C(NCCc1ccc(Cl)cn1)c1ccccc1Br [Compound 39] | ≥ 50 | – | – | – |
| O=C(NCCc1nc(Cl)ccc1Cl)c1ccccc1Br [Compound 37] | ≥ 50 | ≥ 50 | – | – |
| O=C(NCCc1nc(F)c(Cl)cc1Cl)c1ccccc1I [Compound 34] | ≥ 50 | ≥ 50 | ≥ 50 | – |
| O=C(NCCc1nc(F)c(Cl)cc1Cl)c1ccccc1Cl [Compound 59] | ≥ 50 | ≥ 50 | – | – |
| O=C(NCCc1ncc(Cl)cc1F)c1ccccc1I [Compound 21] | ≥ 50 | ≥ 50 | ≥ 50 | – |
| O=C(NCCc1nc(F)c(F)cc1F)c1ccccc1Br [Compound 47] | ≥ 50 | ≥ 50 | ≥ 50 | – |
| O=C(NCCc1nc(Cl)ccc1Cl)c1ccccc1C(F)(F)F [Compound 35] | ≥ 50 | ≥ 50 | ≥ 50 | – |
| O=C(NCCc1nc(F)c(F)cc1F)c1ccccc1C(F)(F)F [Compound 12] | ≥ 50 | ≥ 50 | – | pest or weed control at 330 ppm [1]: ≥ 50% |
| O=C(NCCc1ncc(Cl)cc1Br)c1ccccc1I [Compound 40] | ≥ 50 | ≥ 50 | ≥ 50 | – |
| CNC(=O)C(Cc1ncc(C(F)(F)F)cc1Cl)NC(=O)c1ccc(OC)cc1 (centres unmarked) [compound 315, N-{1-methylcarbamoyl-2-[3-chloro-5-(trifluoromethyl)-2-pyridinyl]ethyl}-4-methoxybenzamide, reference compound] | – | – | – | effectiveness on Botrytis cinerea (Botrytis cinerea): zero effectiveness |
| CCNC(=O)C(Cc1ncc(C(F)(F)F)cc1Cl)NC(=O)c1ccccc1Br (centres unmarked) [compound 310, N-{1-ethylcarbamoyl-2-[3-chloro-5-(trifluoromethyl)-2-pyridinyl]ethyl}-2-bromobenzamide, reference compound] | – | – | – | effectiveness on Botrytis cinerea (Botrytis cinerea): zero effectiveness |
